Results taken from US20090227456A1, “Process for Combating Water Polluted By Algae” (priority 2006, published 2009).

Assays:
[1] = test system: polluting algae of the Dianchi water; experiment: Experiments on the shore of polluted lake Dianchi: acidization of the water by carbon dioxide; assay type: in vivo
Source text: (§1) Subsequent experiments have verified that the extermination occurred when the pH value of the water is reduced to 5.8 or less. Dead algal remains can be filtered out when acidized polluted water by the new filtering system of aquitransistor/filter, and the filtered water is suitable as source of urban water supply. […] Those discoveries and previous developments were patented to teach the use of carbon dioxide as algicide in environmental rehabilitation of polluted lakes and streams for urban water supply. The two Patent applications are:
The Dianchi water with pH values ranging up to 9 was reduced to less than 6, and the empirical rate was estimated in experiments to reduce the pH value by three units. The amount of dissolving carbon dioxide into alkaline waters to combate pollution is substantial. To suppress the algal growth in streams, ponds, swimming pools or fish tanks, the quantity of carbon dioxide required is small. The purpose is less to reduce carbon dioxide emission, but to maintain the cleanness of the water body. The growth of algae can be suppressed if the pH of water is maintained at 7, through the dissolution of carbon dioxide in water. The requirement is in the range of 10-100 grams carbon dioxide for one cubic-meter volume of water, depending the atmosphere-water interchange rate, and other factors. […] Since the main expenditure will be acidization, which is about 30$ per ton, the cost of maintaining algae-free swimming pool should be less than a few dollars per week. Very small metal containers for acidization of […] to produce carbon dioxide can be attached to fish tanks. The occasional bubbling of carbon dioxide to neutralize the alkalinity of water would not only be functional, but also fascinating to children owning the pet fish, and to their mother would not have to slave every month to clean up the algal pollution. Where medium or small quantifies of carbon dioxide are required, we recommend the use of carbon dioxide produced by the acidization of carbonates. The by-product CaCl2 is useful, but has little commercial value. […]

[2] = test system: green algae, blue-green algae and other polluting algae; experiment: Experiments in Beijing: suppression of algal growth by keeping water pH low; assay type: in vivo
Source text: as §1
The Dianchi water with pH values ranging up to 9 was reduced to less than 6, and the empirical rate was estimated in experiments to reduce the pH value by three units. The amount of dissolving carbon dioxide into alkaline waters to combate pollution is substantial. To suppress the algal growth in streams, ponds, swimming pools or fish tanks, the quantity of carbon dioxide required is small. The purpose is less to reduce carbon dioxide emission, but to maintain the cleanness of the water body. The growth of algae can be suppressed if the pH of water is maintained at 7, through the dissolution of carbon dioxide in water. […] Where medium or small quantifies of carbon dioxide are required, we recommend the use of carbon dioxide produced by the acidization of carbonates. […]

SMILES: O=C=O [carbon dioxide]
- extermination of polluting algae after acidization of the water ([1]; Dianchi lake water acidized by carbon dioxide): all be exterminated
- empirical rate of CO2 to reduce the pH value by three units ([1]; Dianchi water, pH up to 9 reduced to less than 6): 2 kg CO2 per ton water
- pH of Dianchi water after treatment ([1]; starting pH values ranging up to 9, 2 kg CO2 per ton water): less than 6 pH
- pH value of the water at which extermination occurred ([1]; water acidized by carbon dioxide): ≤ 5.8 pH
- pH value of water at which algal growth is suppressed ([2]; pH kept at this value or below): ≤ 7.0 pH
- carbon dioxide requirement to suppress algal growth (pH maintained at 7) ([2]; streams, ponds, swimming pools or fish tanks, depends on atmosphere-water interchange rate): 10-100 grams carbon dioxide for one cubic-meter volume of water
